US8759354B2, “Pharmaceutical composition comprising pyrazine derivative, and method of using pyrazine derivative in combination” (priority 2007, dated 2014)
Where two headings read alike, the source gives them in different places.

Key:
[1] = test system: influenza virus (PR/8 (H1N1)); experiment: microbe, parasite or virus in culture; assay type: cell-based; conditions: unidentified influenza virus, MDCK; for inhibition at 0.00625 µg/mL: read-out: Inhibition rate, single use, 0.00625 μg/mL; for inhibition at 0.0125 µg/mL: read-out: Inhibition rate, single use, 0.0125 μg/mL; for inhibition at 0.025 µg/mL: read-out: Inhibition rate, single use, 0.025 μg/mL; for inhibition at 0.05 µg/mL: read-out: Inhibition rate, single use, 0.05 μg/mL; for inhibition at 0.1 µg/mL: read-out: Inhibition rate, single use, 0.1 μg/mL; for inhibition at 0.2 µg/mL: read-out: Inhibition rate, single use, 0.2 μg/mL; for inhibition at 0.4 µg/mL: read-out: Inhibition rate, single use, 0.4 μg/mL; for inhibition at 0.0625 µg/mL: read-out: Inhibition rate, single use, 0.0625 μg/mL; for inhibition at 0.125 µg/mL: read-out: Inhibition rate, single use, 0.125 μg/mL; for inhibition at 0.25 µg/mL: read-out: Inhibition rate, single use, 0.25 μg/mL; for inhibition at 0.5 µg/mL: read-out: Inhibition rate, single use, 0.5 μg/mL; for inhibition at 1 µg/mL: read-out: Inhibition rate, single use, 1 μg/mL; for inhibition at 2 µg/mL: read-out: Inhibition rate, single use, 2 μg/mL
[2] = test system: Victoria/3/75 (H3N2) influenza virus; experiment: microbe, parasite or virus in culture; assay type: cell-based; conditions: Influenza A virus, H3N2, MDCK, single use, read-out: Inhibition rate; for inhibition at 0.0125 µg/mL: 0.0125 μg/mL; for inhibition at 0.025 µg/mL: 0.025 μg/mL; for inhibition at 0.05 µg/mL: 0.05 μg/mL; for inhibition at 0.1 µg/mL: 0.1 μg/mL; for inhibition at 0.2 µg/mL: 0.2 μg/mL; for inhibition at 0.125 µg/mL: 0.125 μg/mL; for inhibition at 0.25 µg/mL: 0.25 μg/mL; for inhibition at 0.5 µg/mL: 0.5 μg/mL; for inhibition at 1 µg/mL: 1 μg/mL; for inhibition at 2 µg/mL: 2 μg/mL; for inhibition at 4 µg/mL: 4 μg/mL

With CC(=O)N[C@H]1[C@H]([C@H](O)[C@H](O)CO)OC(C(=O)O)=C[C@@H]1N=C(N)N [Zanamivir, zanamivir] the inhibition at 0.0031 µg/mL ([1]; read-out: Inhibition rate, single use, 0.0031 μg/mL, Test Example 2) was 6.2%, the inhibition at 0.00625 µg/mL ([1]; Test Example 2) was 12% and the inhibition at 0.0125 µg/mL ([1]; Test Example 2) was 23%. For the same compound, the inhibition at 0.025 µg/mL ([1]; Test Example 2) was 28%, the inhibition at 0.05 µg/mL ([1]; Test Example 2) was 49% and the inhibition at 0.1 µg/mL ([1]; Test Example 2) was 60%. The inhibition at 0.2 µg/mL ([1]; Test Example 2) was 67%, the inhibition at 0.4 µg/mL ([1]; Test Example 2) was 75% and the inhibition at 0.0125 µg/mL ([2]; Test Example 4) was 7.4%. For the same compound, the inhibition at 0.025 µg/mL ([2]; Test Example 4) was 14%, the inhibition at 0.05 µg/mL ([2]; Test Example 4) was 27% and the inhibition at 0.1 µg/mL ([2]; Test Example 4) was 40%. It also gave an inhibition at 0.2 µg/mL ([2]; Test Example 4) of 60%, an inhibition at 0.4 µg/mL ([2]; 0.4 μg/mL, Test Example 4) of 71% and an inhibition at 0.8 µg/mL ([2]; 0.8 μg/mL, Test Example 4) of 81%.

CCC(CC)O[C@@H]1C=C(C(=O)O)C[C@H](N)[C@H]1NC(C)=O [GS-4071] gave an inhibition at 0.00313 µg/mL ([1]; read-out: Inhibition rate, single use, 0.00313 μg/mL, Test Example 1) of 1.9%, an inhibition at 0.00625 µg/mL ([1]; Test Example 1) of 11% and an inhibition at 0.0125 µg/mL ([1]; Test Example 1) of 14%. The inhibition at 0.025 µg/mL ([1]; Test Example 1) was 25%, the inhibition at 0.05 µg/mL ([1]; Test Example 1) was 29% and the inhibition at 0.1 µg/mL ([1]; Test Example 1) was 42%. The inhibition at 0.2 µg/mL ([1]; Test Example 1) was 61%, the inhibition at 0.4 µg/mL ([1]; Test Example 1) was 73% and the inhibition at 0.8 µg/mL ([1]; read-out: Inhibition rate, single use, 0.8 μg/mL, Test Example 1) was 84%. For the same compound, the inhibition at 0.003125 µg/mL ([2]; 0.003125 μg/mL, Test Example 3) was 8.6%, the inhibition at 0.00625 µg/mL ([2]; 0.00625 μg/mL, Test Example 3) was 14% and the inhibition at 0.0125 µg/mL ([2]; Test Example 3) was 44%. The inhibition at 0.025 µg/mL ([2]; Test Example 3) was 54%, the inhibition at 0.05 µg/mL ([2]; Test Example 3) was 68% and the inhibition at 0.1 µg/mL ([2]; Test Example 3) was 80%. For the same compound, the inhibition at 0.2 µg/mL ([2]; Test Example 3) was 88%.

Work on NC(=O)c1nc(F)cnc1O [T-705, 6-Fluoro-3-hydroxy-2-pyrazinecarboxamide] yielded an inhibition at 0.0156 µg/mL ([1]; read-out: Inhibition rate, single use, 0.0156 μg/mL, Test Example 1) of 1.9%, an inhibition at 0.0313 µg/mL ([1]; read-out: Inhibition rate, single use, 0.0313 μg/mL, Test Example 1) of 6.7% and an inhibition at 0.0625 µg/mL ([1]; Test Example 1) of 9.7%. The inhibition at 0.0625 µg/mL ([1]; Test Example 2) was 6.2%, the inhibition at 0.125 µg/mL ([1]; Test Example 1) was 27% and the inhibition at 0.125 µg/mL ([1]; Test Example 2) was 17%. It also gave an inhibition at 0.25 µg/mL ([1]; Test Example 1) of 43%, an inhibition at 0.25 µg/mL ([1]; Test Example 2) of 34% and an inhibition at 0.5 µg/mL ([1]; Test Example 1) of 60%. The inhibition at 0.5 µg/mL ([1]; Test Example 2) was 64%, the inhibition at 1 µg/mL ([1]; Test Example 1) was 85% and the inhibition at 1 µg/mL ([1]; Test Example 2) was 77%. It also gave an inhibition at 2 µg/mL ([1]; Test Example 1) of 93%, an inhibition at 2 µg/mL ([1]; Test Example 2) of 89% and an inhibition at 4 µg/mL ([1]; read-out: Inhibition rate, single use, 4 μg/mL, Test Example 1) of 100%. The inhibition at 0.125 µg/mL ([2]; Test Example 3) was 2.6%, the inhibition at 0.125 µg/mL ([2]; Test Example 4) was 2.6% and the inhibition at 0.25 µg/mL ([2]; Test Example 3) was 9%. It also gave an inhibition at 0.25 µg/mL ([2]; Test Example 4) of 9.2%, an inhibition at 0.5 µg/mL ([2]; Test Example 3) of 42% and an inhibition at 0.5 µg/mL ([2]; Test Example 4) of 42%. The inhibition at 1 µg/mL ([2]; Test Example 3) was 76%, the inhibition at 1 µg/mL ([2]; Test Example 4) was 76% and the inhibition at 2 µg/mL ([2]; Test Example 3) was 86%. It also gave an inhibition at 2 µg/mL ([2]; Test Example 4) of 86%, an inhibition at 4 µg/mL ([2]; Test Example 3) of 94% and an inhibition at 4 µg/mL ([2]; Test Example 4) of 94%.
